In patent publication US7919488B2, “Therapeutic compounds” (Pfizer Inc., priority 2006, dated 2011) one finds IC50 and Ki data, which are given here for 22 compounds.

Format in all cases: biochemical
The target in assay [1] is T1, CYP3A4 (Homo sapiens, UniProt P08684).
T1 construct: 0.1 mg/mL human liver microsomes; from tissue; host or cells: human liver microsomes
As to the kind of experiment: IC50 against CYP3A4 by inhibition of testosterone metabolism in human liver microsomes. Particulars: 0.1 mg/mL human liver microsomes, 25 μM testosterone, 1 mM NADPH, 6-β-OH-testosterone production, eight minutes; read-out: IC50, μM (HLM, testosterone). As to the method:
2. Determination of IC50 Against CYP3A4 by Measurement of Inhibition of Testosterone Metabolism
This assay was performed using a standard 96 well plate design. […] Quantitation of metabolite peak area ratio against an internal standard is determined by LC-MS/MS analysis. The production of 6-β-OH-testosterone from testosterone metabolism is determined after incubation for eight minutes by comparison to a standard curve generated for the metabolite
(§1) Samples were analyzed in the MRM mode using a Sciex API 3000 mass spectrometer (Applied Biosystems, Foster City, Calif.) with a Paradigm MS4 binary pump (Michrom BioResources Inc., Auburn, Calif.) and a LEAP CTC PAL autosampler (LEAP Technologies, Carrboro, N.C.). A Phenomenex Synergi, 4μ, Polar-RP, 10×2.0 mm column (Phenomenex, Torrance, Calif.) was used for separation with a mobile phase composition of: 0.1% formic acid in water (A) and: 0.1% formic acid in methanol (B). The following gradient was used: […]
(§2) The sample injection volume was 10 μL and flow was split post-column with 0.4 mL/min going to the mass spectrometer. Analysis was performed using the following API 3000 mass spectrometer settings: […]

In assay [2] the target is T1, CYP3A4. Description: IC50 against CYP3A4 by inhibition of midazolam metabolism in human liver microsomes. The following applies: 0.1 mg/mL human liver microsomes, 2 μM midazolam, 1 mM NADPH, 1-hydroxymidazolam production, eight minutes; read-out: IC50, μM (HLM, midazolam). As to the method: 3. Determination of IC50 Against CYP3A4 by Measurement of Inhibition of Midazolam Metabolism
This assay was performed using a standard 96 well plate design. […] The incubation substrate mix contains 2 μM midazolam, 0.1 mg/mL human liver microsomes, 1 mM NADPH, and potassium phosphate buffer (100 mM, pH 7.4). Quantitation of metabolite peak area ratio against internal standard is determined by LC-MS/MS analysis. The production of 1-hydroxymidazolam from midazolam metabolism is determined after incubation for eight minutes by comparison to a standard curve generated for the metabolite.
as §1, §2
On the technique in general: Microsomes from liver hold many membrane-bound enzymes, among them those of drug oxidation.

Assay [3] addresses T2, recombinant CYP3A4-b5 enzyme (Baculosomes®) (Homo sapiens, UniProt P08684).
T2 construct: purchased Invitrogen (Carlsbad, Calif.)
Description: Kiapp against recombinant CYP3A4 enzyme (Baculosomes), BFC substrate. Particulars: recombinant CYP3A4-b5 (Invitrogen), 5 uM BFC, 200 uM NADPH, pre-incubation at least 30 minutes, pH 7.0, room temperature. As to the method: 1. Determination of Compound Kiapp
A determination of the Kiapp of the compounds of the invention against recombinant CYP3A4 enzyme was performed as follows. The assay was performed in a 100 mM sodium phosphate buffer pH 7.0, 5 mM TCEP and containing 2% dimethylformamide (final concentration) upon addition of substrate and inhibitor. A typical reaction for the determination of Kiapp values was carried at room temperature in a solid black Costar u-bottom 96-well polypropylene plate. […] When pre-incubation was completed (˜30 min), the reaction was initiated by adding NADPH (200 uM, final concentration), and 7-benzyloxy-4-(trifluoromethyl)-coumarin (BFC) (5 uM, final concentration). The oxidation of the coumarin substrate was recorded by a 96-well plate reader POLARstar (BMG LABTECH, Offenburg, Germany).
The initial reaction velocities were measured during the first 5 min of the reaction when the release of the fluorescent product is linear with time, in the absence and in the presence of various concentrations of inhibitors.
The fluorescent substrate BFC was purchased from Sigma (St Louis, Mo.). Two commercial sources of recombinant enzymes were used in this study: recombinant CYP3A4-b5 enzyme (Baculosomes®) was purchased from Invitrogen (Carlsbad, Calif.) and the recombinant CYP3A4+b5 enzyme (Supersomes®) was purchased from BD Biosciences (Woburn, Mass.).

T1 sequence (P08684 whole entry): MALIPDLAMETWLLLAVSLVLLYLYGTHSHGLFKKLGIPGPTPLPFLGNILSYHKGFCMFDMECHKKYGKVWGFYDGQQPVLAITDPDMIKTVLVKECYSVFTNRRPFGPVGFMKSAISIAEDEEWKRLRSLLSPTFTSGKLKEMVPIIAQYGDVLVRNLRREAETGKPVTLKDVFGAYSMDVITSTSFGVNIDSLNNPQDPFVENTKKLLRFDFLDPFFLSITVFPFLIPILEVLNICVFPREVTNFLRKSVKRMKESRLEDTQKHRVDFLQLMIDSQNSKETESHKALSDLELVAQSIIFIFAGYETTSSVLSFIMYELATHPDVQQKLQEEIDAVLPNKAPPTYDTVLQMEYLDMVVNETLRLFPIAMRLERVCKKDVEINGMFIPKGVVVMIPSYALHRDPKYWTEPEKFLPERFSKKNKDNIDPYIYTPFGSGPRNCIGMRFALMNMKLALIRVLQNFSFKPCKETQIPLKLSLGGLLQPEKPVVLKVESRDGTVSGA
T2 sequence (P08684 whole entry): as above

Regarding `O=C(Cn1nc(-c2ccncc2)cc1Cc1ccc(F)cc1)N1CCN(c2ncccn2)CC1` [Example 56, 2-(4-{[5-(4-fluorobenzyl)-3-pyridin-4-yl-1H-pyrazol-1-yl]acetyl}piperazin-1-yl)pyrimidine], the IC50 in assay [1] and in assay [2] was below 0.012 µM in each case. Besides, the Ki in assay [3] is 0.0303 µM.
As to `Fc1ccc(Cc2cc(-c3ccncc3)nn2Cc2nc(-c3ncccn3)no2)cc1` [Example 25, 2-(5-{[5-(4-fluorobenzyl)-3-pyridin-4-yl-1H-pyrazol-1-yl]methyl}-1,2,4-oxadiazol-3-yl)pyrimidine], the half-maximal inhibitory concentration (IC50) in assay [1] is below 0.012 µM; in assay [2], 0.045 µM. In addition, the Ki in assay [3] turned out to be 0.0568 µM.
For the compound `Cc1c(CNC(=O)Cn2nc(-c3ccncc3)cc2Cc2ccc(F)cc2)cnn1C` [Example 89, N-[(1,5-dimethyl-1H-pyrazol-4-yl)methyl]-2-[5-(4-fluorobenzyl)-3-pyridin-4-yl-1H-pyrazol-1-yl]acetamide], the IC50 in assay [1] is 0.015 µM; in assay [2], 0.016 µM. Besides, the Ki in assay [3] came to 0.0728 µM.
Take `CC(C)(N)CNC(=O)Cn1nc(-c2ccncc2)cc1Cc1ccc(F)cc1` [Example 57, N-(2-amino-2-methylpropyl)-2-[5-(4-fluorobenzyl)-3-pyridin-4-yl-1H-pyrazol-1-yl]acetamide]: the IC50 in assay [1] stood at 0.062 µM; in assay [2] it was 0.064 µM. For the same compound, the Ki in assay [3] stood at 0.124 µM.
Regarding `CN(C(=O)C1CCC1)C1CCN(C(=O)Cn2nc(-c3ccncc3)cc2Cc2ccc(F)cc2)CC1` [Example 12, N-(1-{[5-(4-fluorobenzyl)-3-pyridin-4-yl-1H-pyrazol-1-yl]acetyl}piperidin-4-yl)-N-methylcyclobutanecarboxamide], the concentration for half-maximal inhibition (IC50) in assay [1] was 0.009 µM; in assay [2] it was below 0.003 µM. The Ki in assay [3] was 0.00701 µM.
The like results for `Cc1noc(Cn2nc(-c3ccncc3)cc2Cc2ccc(F)cc2)n1` [Example 59, 4-{5-(4-fluorobenzyl)-1-[(3-methyl-1,2,4-oxadiazol-5-yl)methyl]-1H-pyrazol-3-yl}pyridine] were, in that order, 0.0665 µM, 0.0944 µM and 0.142 µM.
`CC(C)OC(=O)NC1CCN(C(=O)Cn2nc(-c3ccncc3)cc2Cc2ccc(F)cc2)CC1` [Example 116, isopropyl (1-{[5-(4-fluorobenzyl)-3-pyridin-4-yl-1H-pyrazol-1-yl]acetyl}piperidin-4-yl)carbamate]: the half-inhibitory concentration (IC50) in assay [1] was 0.008 µM; in assay [2], below 0.003 µM. Moreover, in assay [3], the Ki was 0.0141 µM.
For the compound `O=C(Cn1nc(-c2ccncc2)cc1Cc1ccc(F)cc1)NCCN1CCOCC1` [Example 55, 2-[5-(4-fluorobenzyl)-3-pyridin-4-yl-1H-pyrazol-1-yl]-N-(2-morpholin-4-ylethyl)acetamide], the IC50 was below 0.012 µM in assay [1] and 0.044 µM in assay [2]. Besides, the Ki in assay [3] worked out at 0.101 µM.
As to `OCCCn1nc(-c2ccncc2)cc1Cc1ccc(F)cc1` [Example 32, 3-(5-(4-fluorobenzyl)-3-(pyridin-4-yl)-1H-pyrazol-1-yl)propan-1-ol], the IC50 in assay [1] stood at 0.015 µM; in assay [2] it was 0.061 µM. Also, the Ki in assay [3] stood at 0.12 µM.
As for `Cn1ccnc1CNC(=O)Cn1nc(-c2ccncc2)cc1Cc1ccc(F)cc1` [Example 87, 2-[5-(4-fluorobenzyl)-3-pyridin-4-yl-1H-pyrazol-1-yl]-N-[(1-methyl-1H-imidazol-2-yl)methyl]acetamide], the IC50 in assay [1] and in assay [2] was 0.019 µM throughout. Also, the Ki in assay [3] was determined as 0.108 µM.
Turning to `Cc1noc(CNC(=O)Cn2nc(-c3ccncc3)cc2Cc2ccc(F)cc2)n1` [Example 90, 2-[5-(4-fluorobenzyl)-3-pyridin-4-yl-1H-pyrazol-1-yl]-N-[(3-methyl-1,2,4-oxadiazol-5-yl)methyl]acetamide], the 50% inhibitory concentration (IC50) was 0.012 µM in assay [1] and 0.019 µM in assay [2]. For the same compound, in assay [3], the Ki was found to be 0.0773 µM.
Consider `CNC1CCN(C(=O)Cn2nc(-c3ccncc3)cc2Cc2ccc(F)cc2)C1` (stereo not drawn) [Example 74, 1-{[5-(4-fluorobenzyl)-3-pyridin-4-yl-1H-pyrazol-1-yl]acetyl}-N-methylpyrrolidin-3-amine], for which the concentration for half-maximal inhibition (IC50) in assay [1] came out at 0.114 µM; in assay [2] it was 0.046 µM. Also, the Ki in assay [3] came to 0.19 µM.
As to `CCc1nc(CNC(=O)Cn2nc(-c3ccncc3)cc2Cc2ccc(F)cc2)no1` [Example 80, N-[(5-ethyl-1,2,4-oxadiazol-3-yl)methyl]-2-[5-(4-fluorobenzyl)-3-pyridin-4-yl-1H-pyrazol-1-yl]acetamide], the IC50 is 0.065 µM in assay [1] and 0.064 µM in assay [2]. The Ki in assay [3] came to 0.0516 µM.
The like results for `CC(C)OC(=O)N(C)C1CCN(C(=O)Cn2nc(-c3ccncc3)cc2Cc2ccc(F)cc2)CC1` [Example 112, isopropyl (1-{[5-(4-fluorobenzyl)-3-pyridin-4-yl-1H-pyrazol-1-yl]acetyl}piperidin-4-yl)methylcarbamate] were, in that order, 0.009 µM, 0.006 µM and 0.002 µM.
For the compound `CCn1ccnc1CNC(=O)Cn1nc(-c2ccncc2)cc1Cc1ccc(F)cc1` [Example 79, N-[(1-ethyl-1H-imidazol-2-yl)methyl]-2-[5-(4-fluorobenzyl)-3-pyridin-4-yl-1H-pyrazol-1-yl]acetamide], the IC50 in assay [1] worked out at 0.019 µM; in assay [2], 0.016 µM. In addition, the Ki in assay [3] was 0.052 µM.
For `CC(NC(=O)Cn1nc(-c2ccncc2)cc1Cc1ccc(F)cc1)c1cnn(C)c1` (stereo not drawn) [Example 85, 2-[5-(4-fluorobenzyl)-3-pyridin-4-yl-1H-pyrazol-1-yl]-N-[1-(1-methyl-1H-pyrazol-4-yl)ethyl]acetamide] the same measures were 0.028 µM, 0.031 µM and 0.0843 µM.
In the case of `Cc1cc(CNC(=O)Cn2nc(-c3ccncc3)cc2Cc2ccc(F)cc2)on1` [Example 86, 2-[5-(4-fluorobenzyl)-3-pyridin-4-yl-1H-pyrazol-1-yl]-N-[(3-methylisoxazol-5-yl)methyl]acetamide], the IC50 in assay [1] is 0.013 µM; in assay [2], 0.018 µM. Besides, the Ki in assay [3] is 0.0571 µM.
The like results for `CCC(=O)N1CC(n2nc(-c3ccncc3)cc2Cc2ccc(F)cc2)C1` [Example 22, 1-(3-(5-(4-fluorobenzyl)-3-(pyridin-4-yl)-1H-pyrazol-1-yl)azetidin-1-yl)propan-1-one] were, in that order, 0.072 µM, 0.084 µM and 0.166 µM.
For `CN1CCN(C(=O)Cn2nc(-c3ccncc3)cc2Cc2ccc(F)cc2)CC1` [Example 61, 1-{[5-(4-fluorobenzyl)-3-pyridin-4-yl-1H-pyrazol-1-yl]acetyl}-4-methylpiperazine] the same measures were 0.038 µM, 0.016 µM and 0.134 µM.
Take `COC(=O)N(C)C1CCN(C(=O)Cn2nc(-c3ccncc3)cc2Cc2ccc(F)cc2)CC1` [Example 15, Methyl (1-{[5-(4-fluorobenzyl)-3-pyridin-4-yl-1H-pyrazol-1-yl]acetyl}piperidin-4-yl)methylcarbamate]: the half-inhibitory concentration (IC50) in assay [1] turned out to be 0.013 µM; in assay [2] it was 0.009 µM. Moreover, the Ki in assay [3] was 0.0222 µM.
Regarding `OCCn1nc(Cc2ccc(F)cc2)cc1-c1ccncc1` [Example 30, 2-[3-(4-fluorobenzyl)-5-pyridin-4-yl-1H-pyrazol-1-yl]ethanol], the values for the IC50 in assay [1] and in assay [2] were 0.446 µM and 0.773 µM, respectively. Moreover, the Ki in assay [3] is 0.646 µM.
Consider `CCS(=O)(=O)NC1CCN(C(=O)Cn2nc(-c3ccncc3)cc2Cc2ccc(F)cc2)CC1` [Example 102, N-(1-(2-[5-(4-fluorobenzyl)-3-pyridin-4-yl-1H-pyrazol-1-yl]acetyl}piperidin-4-yl)ethanesulfonamide], for which the IC50 in assay [1] is 0.023 µM; in assay [2], 0.012 µM. Further, the Ki in assay [3] was 0.107 µM.

The term IC50 denotes the concentration that gives 50% inhibition.
